ChEMBL document CHEMBL3621049, “Imidazole derivatives show anticancer potential by inducing apoptosis and cellular senescence” (2014)
The source made the active and inactive calls.

How the values were obtained:
Assay type in all cases: functional, cell-based
MCF7 = assay: Growth inhibition of human MCF7 cells at 10 uM by sulforhodamine B assay
SF-539 = assay: Growth inhibition of human SF539 cells at 10 uM by sulforhodamine B assay
KM12 = assay: Growth inhibition of human KM12 cells at 10 uM by sulforhodamine B assay
SW-620 = assay: Growth inhibition of human SW620 cells at 10 uM by sulforhodamine B assay
RPMI-8226 = assay: Growth inhibition of human RPMI8226 cells at 10 uM by sulforhodamine B assay
HOP-92 = assay: Growth inhibition of human HOP92 cells at 10 uM by sulforhodamine B assay
MDA-MB-435 = assay: Growth inhibition of human MDA-MB-435 cells at 10 uM by sulforhodamine B assay
CAKI-1 = assay: Growth inhibition of human Caki1 cells at 10 uM by sulforhodamine B assay
MOLT-4 = assay: Growth inhibition of human MOLT4 cells at 10 uM by sulforhodamine B assay
SK-MEL-28 = assay: Growth inhibition of human SK-MEL-28 cells at 10 uM by sulforhodamine B assay
A498 = assay: Growth inhibition of human A498 cells at 10 uM by sulforhodamine B assay
SN12C = assay: Growth inhibition of human SN12C cells at 10 uM by sulforhodamine B assay
RXF 393 = assay: Growth inhibition of human RXF393 cells at 10 uM by sulforhodamine B assay
U-251 = assay: Growth inhibition of human U251 cells at 10 uM by sulforhodamine B assay
SF-295 = assay: Growth inhibition of human SF295 cells at 10 uM by sulforhodamine B assay
A549 = assay: Growth inhibition of human A549/ATCC cells at 10 uM by sulforhodamine B assay
NCI-H522 = assay: Growth inhibition of human NCI-H522 cells at 10 uM by sulforhodamine B assay
UO-31 = assay: Growth inhibition of human UO31 cells at 10 uM by sulforhodamine B assay
SK-MEL-5 = assay: Growth inhibition of human SK-MEL-5 cells at 10 uM by sulforhodamine B assay
BT-549 = assay: Growth inhibition of human BT549 cells at 10 uM by sulforhodamine B assay
HCT-116 = assay: Growth inhibition of human HCT116 cells at 10 uM by sulforhodamine B assay
MDA-MB-231 = assay: Growth inhibition of human MDA-MB-231 cells at 10 uM by sulforhodamine B assay
MDA-MB-468 = assay: Growth inhibition of human MDA-MB-468 cells at 10 uM by sulforhodamine B assay
HCT-15 = assay: Growth inhibition of human HCT15 cells at 10 uM by sulforhodamine B assay
SNB-75 = assay: Growth inhibition of human SNB75 cells at 10 uM by sulforhodamine B assay
IGROV-1 = assay: Growth inhibition of human IGROV1 cells at 10 uM by sulforhodamine B assay
T47D = assay: Growth inhibition of human T47D cells at 10 uM by sulforhodamine B assay
DU-145 = assay: Growth inhibition of human DU145 cells at 10 uM by sulforhodamine B assay
NCI/ADR-RES = assay: Growth inhibition of human NCI/ADR-RES cells at 10 uM by sulforhodamine B assay
SNB-19 = assay: Growth inhibition of human SNB19 cells at 10 uM by sulforhodamine B assay
HOP-62 = assay: Growth inhibition of human HOP62 cells at 10 uM by sulforhodamine B assay
Malme-3M = assay: Growth inhibition of human MALME-3M cells at 10 uM by sulforhodamine B assay
UACC-62 = assay: Growth inhibition of human UACC62 cells at 10 uM by sulforhodamine B assay
HL-60(TB) = assay: Growth inhibition of human HL-60(TB) cells at 10 uM by sulforhodamine B assay
NCI-H23 = assay: Growth inhibition of human NCI-H23 cells at 10 uM by sulforhodamine B assay
K562 = assay: Growth inhibition of human K562 cells at 10 uM by sulforhodamine B assay
SR = assay: Growth inhibition of human SR cells at 10 uM by sulforhodamine B assay
LOX IMVI = assay: Growth inhibition of human LOXIMVI cells at 10 uM by sulforhodamine B assay
OVCAR-8 = assay: Growth inhibition of human OVCAR8 cells at 10 uM by sulforhodamine B assay
HCC 2998 = assay: Growth inhibition of human HCC2998 cells at 10 uM by sulforhodamine B assay
PC-3 = assay: Growth inhibition of human PC3 cells at 10 uM by sulforhodamine B assay
OVCAR-4 = assay: Growth inhibition of human OVCAR4 cells at 10 uM by sulforhodamine B assay
HT-29 = assay: Growth inhibition of human HT-29 cells at 10 uM by sulforhodamine B assay
SK-OV-3 = assay: Growth inhibition of human SKOV3 cells at 10 uM by sulforhodamine B assay
OVCAR-5 = assay: Growth inhibition of human OVCAR5 cells at 10 uM by sulforhodamine B assay
M14 = assay: Growth inhibition of human M14 cells at 10 uM by sulforhodamine B assay
NCI-H322M = assay: Growth inhibition of human NCI-H322M cells at 10 uM by sulforhodamine B assay
COLO 205 = assay: Growth inhibition of human COLO205 cells at 10 uM by sulforhodamine B assay
NCI-H226 = assay: Growth inhibition of human NCI-H226 cells at 10 uM by sulforhodamine B assay
SK-MEL-2 = assay: Growth inhibition of human SK-MEL-2 cells at 10 uM by sulforhodamine B assay
SF-268 = assay: Growth inhibition of human SF268 cells at 10 uM by sulforhodamine B assay
CCRF-CEM = assay: Growth inhibition of human CCRF-CEM cells at 10 uM by sulforhodamine B assay
786-0 = assay: Growth inhibition of human 786-0 cells at 10 uM by sulforhodamine B assay
OVCAR-3 = assay: Growth inhibition of human OVCAR3 cells at 10 uM by sulforhodamine B assay
NCI-H460 = assay: Growth inhibition of human NCI-H460 cells at 10 uM by sulforhodamine B assay
Hs-578T = assay: Growth inhibition of human Hs 578T cells at 10 uM by sulforhodamine B assay
UACC-257 = assay: Growth inhibition of human UACC257 cells at 10 uM by sulforhodamine B assay
ACHN = assay: Growth inhibition of human ACHN cells at 10 uM by sulforhodamine B assay
TK-10 = assay: Growth inhibition of human TK10 cells at 10 uM by sulforhodamine B assay

Measured: growth inhibition (GI)

COc1cc(-c2nc(-c3ccccc3)c(-c3ccccc3)[nH]2)ccc1OC1CCCC1
active: all assays above

COc1ccc(-c2nc(-c3ccccc3)c(-c3ccccc3)n2C2CC2)cc1OC1CCCCC1
active: all assays above
